Reference: ChEMBL document CHEMBL5104141, “Discovery and antiviral profile of new sulfamoylbenzamide derivatives as HBV capsid assembly modulators” (Bioorg Med Chem Lett, 2022)
Converted amounts (≈) assume the structure as drawn.

Assays:
[1] = target: Core antigen (Hepatitis B virus) (UniProt Q03732); test: Modulation of capsid assembly in HBV infected in human HePAD38 cells assessed as inhibition of viral DNA replication measured after 96 hrs by qPCR analysis; type: cell-based; conditions: filed as modulator
Sequence of Core antigen (Hepatitis B virus) (Q03732 as listed by the source): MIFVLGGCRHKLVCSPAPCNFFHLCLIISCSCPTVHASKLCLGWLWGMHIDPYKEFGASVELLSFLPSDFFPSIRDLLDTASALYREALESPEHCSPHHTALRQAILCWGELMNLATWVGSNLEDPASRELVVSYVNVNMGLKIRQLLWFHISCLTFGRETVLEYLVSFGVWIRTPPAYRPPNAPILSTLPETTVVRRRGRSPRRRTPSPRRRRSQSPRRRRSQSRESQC

[2] = Ratio of EC50 for antiviral activity against HBV harboring core protein T33N mutant to EC50 for antiviral activity against HBV harboring wild type core protein; type: functional, Hepatitis B virus
[3] = Ratio of EC50 for antiviral activity against HBV harboring core protein V124G mutant to EC50 for antiviral activity against HBV harboring wild type core protein; type: functional, Hepatitis B virus
[4] = Mutagenicity in Escherichia coli upto 1250 ug/plate in presence of S9 fraction by Ames test; type: toxicity, subcellular; conditions: dose < 1250 µg
[5] = Cmax in C57BL/6 mouse at 5 mg/kg, po; type: ADME, organism-based; parameters: dose 5 mg/kg, route po; conditions: in vivo
[6] = Ratio of drug concentration in liver to blood in C57BL/6 mouse at 5 mg/kg, po measured after 4 hrs; type: ADME, organism-based
[7] = Cytotoxicity against human HePAD38 cells up to 10 uM by CellTiter-Blue assay; type: toxicity, cell-based; conditions: hepad38, 10 µM
HepG2 2.2.15 = test: Cytotoxicity against human HepG2.2.15 cells up to 10 uM by CellTiter-Blue assay; type: toxicity, cell-based; conditions: hepg2 2.2.15, 10 µM
Hepatitis B virus [8] = test: Antiviral activity against HBV in HBV transgenic mouse assessed as inhibition of viral replication by measuring log reduction of serum HBV DNA content at 25 mg/kg, po BID for 3 days; type: functional; conditions: time 3 day
Hepatitis B virus [9] = test: Antiviral activity against HBV in HBV transgenic mouse assessed as inhibition of viral replication by measuring log reduction of serum HBV DNA content at 75 mg/kg, po BID for 3 days; type: functional; conditions: time 3 day
[10] = Ratio of EC50 for antiviral activity against HBV harboring core protein I105T mutant to EC50 for antiviral activity against HBV harboring wild type core protein; type: functional, Hepatitis B virus
[11] = Volume of distribution in C57BL/6 mouse at 2 mg/kg, iv; type: ADME, organism-based; conditions: in vivo
[12] = Half life in C57BL/6 mouse at 2 mg/kg, iv; type: ADME, organism-based; conditions: in vivo
Hepatitis B virus [13] = test: Antiviral activity against HBV in HBV transgenic mouse assessed as inhibition of viral replication by measuring reduction of serum HBV DNA content administered orally BID for 3 days; type: functional, organism-based; conditions: dose 25-75 mg/kg, route po, time 3.0 day, DDE = dose-dependent effect
[14] = Mutagenicity in Escherichia coli upto 1250 ug/plate in absence of S9 fraction by Ames test; type: toxicity; conditions: dose < 1250 µg
[15] = Ratio of EC50 for antiviral activity against HBV harboring core protein Y118F mutant to EC50 for antiviral activity against HBV harboring wild type core protein; type: functional, Hepatitis B virus
Cytochrome P450 2D6 = Cytochrome P450 2D6 (Homo sapiens, UniProt P10635); test: Inhibition of CYP2D6 (unknown origin); type: ADME
Sequence of Cytochrome P450 2D6 (P10635 whole entry): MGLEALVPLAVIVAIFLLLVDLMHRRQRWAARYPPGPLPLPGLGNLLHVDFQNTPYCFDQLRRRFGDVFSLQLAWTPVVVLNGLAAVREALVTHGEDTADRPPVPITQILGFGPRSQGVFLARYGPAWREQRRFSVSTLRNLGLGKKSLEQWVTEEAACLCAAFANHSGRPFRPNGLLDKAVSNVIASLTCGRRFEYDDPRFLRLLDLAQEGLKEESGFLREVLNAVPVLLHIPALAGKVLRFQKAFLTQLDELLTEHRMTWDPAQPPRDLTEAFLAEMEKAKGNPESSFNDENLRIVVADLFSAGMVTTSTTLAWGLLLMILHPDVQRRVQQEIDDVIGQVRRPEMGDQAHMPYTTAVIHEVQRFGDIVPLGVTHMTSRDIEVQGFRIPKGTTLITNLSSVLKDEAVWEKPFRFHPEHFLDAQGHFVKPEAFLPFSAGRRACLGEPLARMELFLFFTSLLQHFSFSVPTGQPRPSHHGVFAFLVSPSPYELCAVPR

[16] = Oral bioavailability in C57BL/6 mouse at 5 mg/kg; type: ADME, organism-based; conditions: in vivo
[17] = Plasma clearance in C57BL/6 mouse at 2 mg/kg, iv; type: ADME, organism-based
[18] = Ratio of EC50 for antiviral activity against HBV harboring core protein F110I mutant to EC50 for antiviral activity against HBV harboring wild type core protein; type: functional, Hepatitis B virus
[19] = Mutagenicity in Salmonella typhimurium upto 1250 ug/plate in presence of S9 fraction by Ames test; type: toxicity, subcellular; conditions: salmonella enterica subsp. enterica serovar typhimurium, dose < 1250 µg
Hepatitis B virus [20] = test: Antiviral activity against HBV in HBV transgenic mouse assessed as inhibition of viral replication by measuring fold reduction of serum HBV DNA content at 75 mg/kg, po BID for 3 days relative to control; type: functional; conditions: time 3 day
Cytochrome P450 1A2 = target: T1, Cytochrome P450 1A2 (Homo sapiens, UniProt P05177); test: Inhibition of CYP1A2 (unknown origin); type: ADME
T1 sequence (P05177 whole entry): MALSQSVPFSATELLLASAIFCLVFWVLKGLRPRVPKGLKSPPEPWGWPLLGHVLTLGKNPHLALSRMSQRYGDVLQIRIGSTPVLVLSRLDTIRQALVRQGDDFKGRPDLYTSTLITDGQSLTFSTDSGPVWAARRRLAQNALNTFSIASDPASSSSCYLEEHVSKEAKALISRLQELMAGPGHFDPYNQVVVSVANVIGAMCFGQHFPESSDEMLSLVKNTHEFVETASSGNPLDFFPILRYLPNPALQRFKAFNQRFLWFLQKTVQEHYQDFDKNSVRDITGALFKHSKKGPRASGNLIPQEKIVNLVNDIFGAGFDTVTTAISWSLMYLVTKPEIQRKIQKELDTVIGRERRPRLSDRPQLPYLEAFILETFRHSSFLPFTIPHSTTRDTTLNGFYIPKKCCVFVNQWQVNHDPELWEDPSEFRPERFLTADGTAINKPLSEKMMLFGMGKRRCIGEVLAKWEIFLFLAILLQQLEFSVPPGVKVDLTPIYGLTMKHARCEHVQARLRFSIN

[21] = Toxicity in HBV transgenic mouse assessed as liver damage at 25 to 75 mg/kg, po BID for 3 days; type: organism-based; conditions: in vivo, 72 h, dose 25-75 mg/kg, time 3 day
[22] = Metabolic stability of the compound in human hepatocytes assessed as parent compound remaining measured after 4 hrs; type: ADME, cell-based, Hepatocyte; conditions: read-out: Stability
[23] = Kinetic solubility of the compound at pH 7.4; type: physicochemical; conditions: buffer, read-out: Kinetic_solubility
[24] = AUC in C57BL/6 mouse at 5 mg/kg, po and 2 mg/kg, iv; type: ADME, organism-based; parameters: dose 5 mg/kg, route po; conditions: in vivo
[25] = Ratio of EC50 for antiviral activity against HBV harboring core protein F23Y mutant to EC50 for antiviral activity against HBV harboring wild type core protein; type: functional, Hepatitis B virus
Cytochrome P450 3A4 = Cytochrome P450 3A4 (Homo sapiens, UniProt P08684); test: Inhibition of CYP3A4 (unknown origin); type: ADME
Sequence of Cytochrome P450 3A4 (P08684 whole entry): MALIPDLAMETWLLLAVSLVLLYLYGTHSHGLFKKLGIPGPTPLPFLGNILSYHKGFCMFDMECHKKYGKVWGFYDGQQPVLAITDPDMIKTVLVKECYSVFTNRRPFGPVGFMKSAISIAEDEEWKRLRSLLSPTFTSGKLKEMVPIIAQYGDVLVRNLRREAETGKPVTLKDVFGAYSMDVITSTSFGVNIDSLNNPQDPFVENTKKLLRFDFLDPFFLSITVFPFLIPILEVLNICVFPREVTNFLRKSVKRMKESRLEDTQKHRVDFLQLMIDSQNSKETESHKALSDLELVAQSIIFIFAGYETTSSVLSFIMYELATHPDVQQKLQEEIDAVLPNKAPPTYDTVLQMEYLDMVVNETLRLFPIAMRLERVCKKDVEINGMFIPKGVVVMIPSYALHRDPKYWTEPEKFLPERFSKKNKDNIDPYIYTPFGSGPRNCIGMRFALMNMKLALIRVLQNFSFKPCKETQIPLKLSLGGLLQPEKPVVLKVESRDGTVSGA

[26] = Ratio of EC50 for antiviral activity against HBV harboring core protein T33P mutant to EC50 for antiviral activity against HBV harboring wild type core protein; type: functional, Hepatitis B virus
[27] = Mutagenicity in Salmonella typhimurium upto 1250 ug/plate in absence of S9 fraction by Ames test; type: toxicity; conditions: salmonella enterica subsp. enterica serovar typhimurium, dose < 1250 µg
[28] = target: Voltage-gated inwardly rectifying potassium channel KCNH2 (Homo sapiens, UniProt Q12809); test: Inhibition of hERG; type: toxicity
Sequence of Voltage-gated inwardly rectifying potassium channel KCNH2 (Q12809 whole entry): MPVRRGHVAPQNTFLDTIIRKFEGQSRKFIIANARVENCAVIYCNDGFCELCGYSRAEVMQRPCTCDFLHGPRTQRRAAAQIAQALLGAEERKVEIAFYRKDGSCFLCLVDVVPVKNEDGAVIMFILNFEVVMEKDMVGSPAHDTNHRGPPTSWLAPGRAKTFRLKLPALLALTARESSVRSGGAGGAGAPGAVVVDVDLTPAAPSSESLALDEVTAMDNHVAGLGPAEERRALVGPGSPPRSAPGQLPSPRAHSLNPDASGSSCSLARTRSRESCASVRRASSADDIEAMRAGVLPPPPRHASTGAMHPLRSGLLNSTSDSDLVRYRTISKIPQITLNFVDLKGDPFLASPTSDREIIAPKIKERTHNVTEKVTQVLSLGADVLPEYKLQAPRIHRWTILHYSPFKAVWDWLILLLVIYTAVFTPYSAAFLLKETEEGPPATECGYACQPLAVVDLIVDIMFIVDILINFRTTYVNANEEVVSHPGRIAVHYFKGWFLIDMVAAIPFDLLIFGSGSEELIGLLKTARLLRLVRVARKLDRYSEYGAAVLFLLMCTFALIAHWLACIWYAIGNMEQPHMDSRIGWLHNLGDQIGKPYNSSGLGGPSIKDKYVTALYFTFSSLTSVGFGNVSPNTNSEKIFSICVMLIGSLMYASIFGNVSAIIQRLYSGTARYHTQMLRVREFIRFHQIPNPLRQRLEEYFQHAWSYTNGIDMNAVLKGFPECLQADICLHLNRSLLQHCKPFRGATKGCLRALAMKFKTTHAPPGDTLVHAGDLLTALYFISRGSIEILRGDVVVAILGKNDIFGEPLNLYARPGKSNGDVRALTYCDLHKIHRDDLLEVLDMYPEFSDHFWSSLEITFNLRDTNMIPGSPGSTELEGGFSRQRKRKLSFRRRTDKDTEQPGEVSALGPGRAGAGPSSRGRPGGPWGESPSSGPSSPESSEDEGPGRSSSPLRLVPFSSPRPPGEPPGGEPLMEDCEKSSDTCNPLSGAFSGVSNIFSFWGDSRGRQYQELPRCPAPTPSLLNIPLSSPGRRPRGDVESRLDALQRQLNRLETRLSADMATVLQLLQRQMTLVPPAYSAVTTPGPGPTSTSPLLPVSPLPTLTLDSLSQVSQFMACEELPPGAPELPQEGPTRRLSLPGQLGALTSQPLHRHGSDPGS

[29] = Ratio of EC50 for antiviral activity against HBV harboring core protein T128I mutant to EC50 for antiviral activity against HBV harboring wild type core protein; type: functional, Hepatitis B virus
[30] = Ratio of EC50 for antiviral activity against HBV harboring core protein L37Q mutant to EC50 for antiviral activity against HBV harboring wild type core protein; type: functional, Hepatitis B virus
[31] = Metabolic stability of the compound in mouse hepatocytes assessed as parent compound remaining measured after 4 hrs; type: ADME, cell-based, Hepatocyte; conditions: read-out: Stability
[32] = target: Core antigen (Hepatitis B virus) (UniProt Q03732); test: Modulation of capsid assembly in HBV infected in human HePAD38 cells assessed as fold shift in inhibition of viral DNA replication in presence of 40% normal human serum measured after 96 hrs by qPCR analysis; type: cell-based; conditions: filed as modulator
Hepatitis B virus [33] = test: Antiviral activity against HBV in HBV transgenic mouse assessed as inhibition of viral replication by measuring reduction of serum HBV DNA content at 25 to 75 mg/kg, po BID for 3 days; type: functional, organism-based; conditions: dose 25-75 mg/kg, time 3.0 day, TDE = time-dependent effect
Hepatitis B virus [34] = test: Antiviral activity against HBV in HBV transgenic mouse assessed as inhibition of viral replication by measuring fold reduction of serum HBV DNA content at 25 mg/kg, po BID for 3 days relative to control; type: functional; conditions: time 3 day

`NS(=O)(=O)c1cc(C(=O)Nc2cc(F)c(F)c(F)c2)ccc1F` gave an EC90 [1] of 8.13 µM.
`Cc1cc(C(=O)Nc2cc(F)c(F)c(F)c2)cc(S(N)(=O)=O)c1N` gave an EC90 [1] of 1.54 µM.
With `Cc1cc(NC(=O)c2cc(S(N)(=O)=O)c(N)cc2C)ccc1F` the EC90 [1] was 0.39 µM.
With `N#Cc1cc(NC(=O)c2ccc(N)c(S(N)(=O)=O)c2)ccc1F` the EC90 [1] was 2.53 µM.
Compound `Nc1ccc(C(=O)Nc2ccc(F)c(C(F)(F)F)c2)cc1S(N)(=O)=O` has an EC90 [1] of 3.65 µM.
With `Cc1cc(N)c(S(N)(=O)=O)cc1C(=O)Nc1ccc(F)c(C(F)F)c1` the EC90 [1] was 0.66 µM.
In the case of `Nc1ccc(C(=O)Nc2ccc(F)c(Cl)c2)cc1S(N)(=O)=O`, the EC90 [1] is reported as 0.36 µM.
For `Nc1ccc(C(=O)Nc2cc(F)c(F)c(F)c2)cc1S(N)(=O)=O`, the EC90 [1] was 0.49 µM.
With `Cc1cc(N)c(S(N)(=O)=O)cc1C(=O)Nc1ccc(F)c(C(F)(F)F)c1` the EC90 [1] was 2.63 µM.
Work on `Nc1ccc(C(=O)Nc2ccc(F)c(C(F)F)c2)cc1S(N)(=O)=O` yielded an EC90 [1] of 0.48 µM.
For `O=C(Nc1cc(F)c(F)c(F)c1)c1ccc(F)c(S(=O)(=O)N2CCC(O)CC2)c1`, the EC90 [1] was 1.13 µM.
Work on `Cc1cc(NC(=O)c2ccc(N)c(S(N)(=O)=O)c2)ccc1F` yielded an EC90 [1] of 0.7 µM.
Work on `Cc1cc(N)c(S(N)(=O)=O)cc1C(=O)Nc1ccc(F)c(Cl)c1` yielded an EC90 [1] of 0.39 µM.
Work on `Nc1cc(Br)c(C(=O)Nc2cc(F)c(F)c(F)c2)cc1S(N)(=O)=O` yielded an EC90 [1] of 2.78 µM.
Work on `CNc1ccc(C(=O)Nc2cc(F)c(F)c(F)c2)cc1S(N)(=O)=O` yielded an EC90 [1] of 20.9 µM.
For `Nc1cc(F)c(C(=O)Nc2cc(F)c(F)c(F)c2)cc1S(N)(=O)=O`, the EC90 [1] was 1.09 µM.
For `Cc1cc(N)c(S(N)(=O)=O)cc1C(=O)Nc1cc(F)c(F)c(F)c1`, the EC90 [1] was 0.26 µM, the “Ratio EC50” value [2] was 3.1 and the “Ratio EC50” value [3] was 3.1. The Activity [4] was “Non-Toxic”, the Cmax [5] was 3.6 µM and the Kp at 4 h [6] was 10. The Activity [7] was “Non-Toxic”, the Activity (HepG2 2.2.15) was “Non-Toxic” and the “log(activity)” value (Hepatitis B virus [8]) was 1.18. For the same compound, the “log(activity)” value (Hepatitis B virus [9]) was 1.68, the “Ratio EC50” value [10] was 3.1 and the Vd [11] was 2.3 L/kg. The half-life [12] was 192 min, the Activity (Hepatitis B virus [13]) was “Dde” and the Activity [14] was “Non-Toxic”. The “Ratio EC50” value [15] was 3.1, the IC50 (Cytochrome P450 2D6) was over 15 µM and the bioavailability [16] was 114%. The clearance [17] was 8 mL/min/kg, the “Ratio EC50” value [18] was 3.1 and the Activity [19] was “Non-Toxic”. The “fold change (FC)” value (Hepatitis B virus [20]) was 48.3, the IC50 (Cytochrome P450 1A2) was 12.4 µM and the Activity [21] was “Non-Toxic”. For the same compound, the remaining at 4 h [22] was 90%, the solubility kinetic [23] was 29.2 µM (≈ 10.5 µg/mL) and the AUC [24] was 33 µM·h. For the same compound, the “Ratio EC50” value [25] was 3.1, the IC50 (Cytochrome P450 3A4) was over 30 µM and the “Ratio EC50” value [26] was 3.1. For the same compound, the Activity [27] was “Non-Toxic”, the IC50 [28] was over 30 µM and the “Ratio EC50” value [29] was 3.1. The “Ratio EC50” value [30] was 3.1, the remaining at 4 h [31] was 100% and the fold change (FC) [32] was 16.9. For the same compound, the Activity (Hepatitis B virus [33]) was “Tde” and the “fold change (FC)” value (Hepatitis B virus [34]) was 15.2.
For `Cc1cc(N)c(S(N)(=O)=O)cc1C(=O)Nc1ccc(F)c(C#N)c1`, the EC90 [1] was 1.21 µM.
`Nc1cc(Cl)c(C(=O)Nc2cc(F)c(F)c(F)c2)cc1S(N)(=O)=O` showed an EC90 [1] of 1.24 µM.
